Assay results from US20190293584A1, “Detection of Living Cells” (priority 2018, published 2019).
Where a name gives a salt, the structure may show the parent alone.

Legend:
M. smegmatis [1] = assay type: cell-based, Mycobacterium smegmatis
M. bovis BCG [2] = assay type: cell-based, Mycobacterium bovis BCG
M. smegmatis [3] = settings: known from literature; cited from earlier work
M. bovis BCG [4] = settings: known from literature; cited from earlier work
M. tuberculosis = settings: known from literature; cited from earlier work
[5] = tested on: cocktail of S. aureus and P. aeruginosa; assay: m-EIS bulk capacitance vs time, incompletely decontaminated artificial sputum with non-mycobacterial cultures; assay type: cell-based, Staphylococcus aureus and Pseudomonas aeruginosa; settings: incomplete decontamination: NaOH-NALC approximately 1 minute, 0.25 N NaOH
From the text: All m-EIS readings were done post digestion and decontamination of the samples using the NALC-NaOH technique. In the first case, the sample has no bacteria and no changes in charge storage (bulk capacitance) should occur at any point in time. It is expected to see a flat line as there should be no change in the bulk capacitance over time. In case three, where the sample contains gram-positive and gram-negative bacteria, but no mycobacteria, all organisms should be killed during decontamination (pre-treatment) itself, and the addition of the antibiotics is not expected to cause any changes to the measured value of bulk capacitance. However, if there are mycobacteria in the sample (as in case […]), the mycobacteria should survive the decontamination process and continue to grow in the presence of Carbenicillin (case 2B). However, they will die in the presence of amikacin (case 2A). […]
The experimental protocol requires periodic (e.g., every hour) performance of an electrical “scan” of sample aliquots in a microfluidic cassette, wherein electrical impedance was measure at multiple (200) frequencies ranging from 1 kHz to 100 MHz. […] At each frequency (ω), both the in-phase and out-of-phase components of the electrical impedance, Z, (resistance (R) and reactance (X)) were measured. […]

mycobacteria = settings: known from literature; cited from earlier work
[6] = tested on: most other non-mycobacterial species; settings: known from literature; cited from earlier work

SMILES | time-to-detection (TTD): earliest time at which bulk capacitance is significantly lower than baseline (M. smegmatis [1]; M. smegmatis in artificial sputum after NaOH-NALC decontamination, initial loads (1 to 5)×10^5 CFU/ml, amikacin 32 μg/ml, carbenicillin 25 μg/ml) | time-to-detection (TTD) (M. bovis BCG [2]; M. bovis BCG in artificial sputum, exposed to amikacin) | bactericidal effect (M. smegmatis [3]) | bactericidal effect (M. bovis BCG [4]) | bactericidal effect (M. tuberculosis) | change of bulk capacitance (impedance values) over time (M. smegmatis [1]; Case 2: M. smegmatis, P aeruginosa and S. aureus, after decontamination) | rate of increase in bulk capacitance (M. bovis BCG [2]; Case 2, M. bovis BCG, 3 hours observation) | change of bulk capacitance over time (M. bovis BCG [2]; Case 2, M. bovis BCG, duration of observation 3 hours) | change of bulk capacitance over time [5] | activity against mycobacteria (mycobacteria) | activity against non-mycobacterial species [6]
NCC[C@H](O)C(=O)N[C@@H]1C[C@H](N)[C@@H](O[C@H]2O[C@H](CN)[C@@H](O)[C@H](O)[C@H]2O)[C@H](O)[C@H]1O[C@H]1O[C@H](CO)[C@@H](O)[C@H](N)[C@H]1O [Amikacin] | < 3 h | < 3 h | bactericidal effects | bactericidal effects | bactericidal effects |  |  |  |  |  | 
CC1(C)S[C@@H]2[C@H](NC(=O)C(C(=O)O)c3ccccc3)C(=O)N2[C@H]1C(=O)O (some centres unmarked) [Carbenicillin, Carbenicillin disodium salt] |  |  |  |  |  | not found to show any decrease over time | negligible | no growth was seen | decreases in bulk capacitance were observed over time | ineffective | bactericidal
